Laboratory results reported in the Kinase Knowledgebase extract (Sharma et al. 2016).
Values joined by “and” are separate entries in the source; they are usually repeats but may differ in a detail not shown here. Identical values can stand only once.

Target: MAPK14 (human) (UniProt Q16539)
Assay: Inhibition of MAPK14 Kinase Activity

Chain of MAPK14 (human) (Q16539 whole entry, looked up): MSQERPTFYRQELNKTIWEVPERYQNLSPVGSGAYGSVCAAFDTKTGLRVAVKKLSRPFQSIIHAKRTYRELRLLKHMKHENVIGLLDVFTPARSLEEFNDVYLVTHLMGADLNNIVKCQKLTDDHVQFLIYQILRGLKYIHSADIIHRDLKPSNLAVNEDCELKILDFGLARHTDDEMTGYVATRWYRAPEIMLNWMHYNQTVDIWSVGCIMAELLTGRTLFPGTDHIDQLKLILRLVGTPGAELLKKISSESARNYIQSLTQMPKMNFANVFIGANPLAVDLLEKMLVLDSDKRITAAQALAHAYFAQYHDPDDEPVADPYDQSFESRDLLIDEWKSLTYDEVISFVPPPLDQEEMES

SMILES	IC50
C[C@H](N[C@H]1CC[C@@H](c2[nH]nc(-c3ccc(Cl)cc3)c2-c2ccncn2)CC1)c1ccc(F)cc1	130 nM and 61 nM
C[C@H](N[C@H]1CC[C@@H](c2[nH]nc(-c3ccc(Cl)cc3)c2-c2ccncn2)CC1)c1ccccc1	112 nM and 44.9 nM
CC(C)(C)OC(=O)N1CCC(c2[nH]nc(-c3ccc(Cl)cc3)c2-c2ccnc(O[C@H]3CCOC3)n2)CC1	1680 nM
O=C(CO)N1CCC(c2[nH]nc(-c3ccc(F)c(C(F)(F)F)c3)c2-c2ccncn2)CC1	339 nM
Cc1cc(-c2n[nH]c(C3CCN(C(=O)CO)CC3)c2-c2ccncn2)ccc1F	155 nM
CN(C)CCNc1nccc(-c2c(-c3ccc(Cl)cc3F)n[nH]c2C2CCN(C)CC2)n1	1000 nM
C[C@@H](N[C@H]1CC[C@H](c2[nH]nc(-c3ccc(Cl)cc3)c2-c2ccncn2)CC1)c1ccccc1	8.56 nM
O=C(C1CCCO1)N1CCC(c2[nH]nc(-c3ccc(Cl)cc3)c2-c2ccncn2)CC1 (centres undefined)	120 nM
Fc1ccc(CN2CCC(c3[nH]nc(-c4ccc(Cl)cc4)c3-c3ccncn3)CC2)cc1	9.27 nM
CN(C)CCNc1nccc(-c2c(-c3ccc(Cl)cc3)n[nH]c2C2CCN(C(=O)CO)CC2)n1	859 nM
Clc1ccc(-c2n[nH]c([C@H]3CC[C@@H](NC4CCCCC4)CC3)c2-c2ccncn2)cc1	235 nM
CC(=O)O[C@@H](C(=O)N1CCC(c2[nH]nc(-c3ccc(Cl)cc3)c2-c2ccncn2)CC1)c1ccccc1	572 nM
C[C@@H](N[C@H]1CC[C@H](c2[nH]nc(-c3ccc(Cl)cc3)c2-c2ccncn2)CC1)c1ccc(F)cc1	5.76 nM
CN(C)CCNc1nccc(-c2c(-c3ccc(F)c(C(F)(F)F)c3)n[nH]c2C2CCNCC2)n1	111 nM
CC(C)(C)OC(=O)N1CCC(c2[nH]nc(-c3ccc(Cl)cc3F)c2-c2ccnc(NC3CCCC3)n2)CC1	10 nM
O=C(CO)N1CCC(c2[nH]nc(-c3ccc(Cl)c(F)c3)c2-c2ccncn2)CC1	455 nM
Cc1cc(F)ccc1-c1n[nH]c(C2CCN(C(=O)CO)CC2)c1-c1ccncn1	2680 nM
COc1ccc(-c2n[nH]c(C3CCN(C(=O)CO)CC3)c2-c2ccncn2)cc1OC	> 100000 nM
O=C(CO)N1CCC(c2[nH]nc(-c3ccc(Cl)cc3)c2-c2ccnc(NC3CCCC3)n2)CC1	10 nM
